Test results: ChEMBL document CHEMBL3632622, “Synthesis and biological evaluation of novel N-phenyl ureidobenzenesulfonate derivatives as potential anticancer agents. Part 2. Modulation of the ring B” (Eur J Med Chem, 2015)
Values belong to the compound of their own block, whether it stands above or below them. Calls of active or inactive are those of the source. The rule behind the calls is not given here.

Tests used:
[1] = Antiproliferative activity against human HT1080 cells assessed as growth inhibition incubated for 48 hrs by sulforhodamine B assay; format: functional, cell-based, HT-1080; conditions: Homo sapiens, HT-1080, 48 h; read-out: IC50
M21 [2] = experiment: Antiproliferative activity against human M21 cells assessed as growth inhibition incubated for 48 hrs by sulforhodamine B assay; format: functional, cell-based; conditions: M21, 48 h
HT-29 = experiment: Antiproliferative activity against human HT-29 cells assessed as growth inhibition incubated for 48 hrs by sulforhodamine B assay; format: functional, cell-based; conditions: HT-29, 48 h
MCF7 = experiment: Antiproliferative activity against human MCF7 cells assessed as growth inhibition incubated for 48 hrs by sulforhodamine B assay; format: functional, cell-based; conditions: MCF7, 48 h
M21 [3] = experiment: Cell cycle arrest in human M21 cells assessed as accumulation at subG1 phase at 6.5 uM after 24 hrs by DAPI staining-based flow cytometry (reference value: 1.5%); format: functional
M21 [4] = experiment: Cell cycle arrest in human M21 cells assessed as accumulation at G0/G1 phase at 6.5 uM after 24 hrs by DAPI staining-based flow cytometry (reference value: 65.1%); format: functional
M21 [5] = experiment: Cell cycle arrest in human M21 cells assessed as accumulation at S phase at 6.5 uM after 24 hrs by DAPI staining-based flow cytometry (reference value: 17.4%); format: functional
M21 [6] = experiment: Cell cycle arrest in human M21 cells assessed as accumulation at G2/M phase at 6.5 uM after 24 hrs by DAPI staining-based flow cytometry (reference value: 16%); format: functional
M21 [7] = experiment: Cell cycle arrest in human M21 cells assessed as accumulation at subG1 phase at 16 uM after 24 hrs by DAPI staining-based flow cytometry (reference value: 1.5%); format: functional
M21 [8] = experiment: Cell cycle arrest in human M21 cells assessed as accumulation at G0/G1 phase at 16 uM after 24 hrs by DAPI staining-based flow cytometry (reference value: 65.1%); format: functional
M21 [9] = experiment: Cell cycle arrest in human M21 cells assessed as accumulation at S phase at 16 uM after 24 hrs by DAPI staining-based flow cytometry (reference value: 17.4%); format: functional
M21 [10] = experiment: Cell cycle arrest in human M21 cells assessed as accumulation at G2/M phase at 16 uM after 24 hrs by DAPI staining-based flow cytometry (reference value: 16%); format: functional
M21 [11] = experiment: Cell cycle arrest in human M21 cells assessed as accumulation at G0/G1 phase at 10 uM after 24 hrs by DAPI staining-based flow cytometry (reference value: 65.1%); format: functional
M21 [12] = experiment: Cell cycle arrest in human M21 cells assessed as accumulation at S phase at 10 uM after 24 hrs by DAPI staining-based flow cytometry (reference value: 17.4%); format: functional
M21 [13] = experiment: Cell cycle arrest in human M21 cells assessed as accumulation at G2/M phase at 10 uM after 24 hrs by DAPI staining-based flow cytometry (reference value: 16%); format: functional
M21 [14] = experiment: Cell cycle arrest in human M21 cells assessed as accumulation at subG1 phase at 10 uM after 24 hrs by DAPI staining-based flow cytometry (reference value: 1.5%); format: functional
M21 [15] = experiment: Induction DNA DSBs in human M21 cells assessed as increase in gamma H2AX foci at 10 uM incubated for 24 hrs by DAPI staining based immunocytochemistry; format: cell-based
M21 [16] = experiment: Cell cycle arrest in human M21 cells assessed as accumulation at subG1 phase at 2.2 uM after 24 hrs by DAPI staining-based flow cytometry (reference value: 1.5%); format: functional
M21 [17] = experiment: Cell cycle arrest in human M21 cells assessed as accumulation at G0/G1 phase at 2.2 uM after 24 hrs by DAPI staining-based flow cytometry (reference value: 65.1%); format: functional
M21 [18] = experiment: Cell cycle arrest in human M21 cells assessed as accumulation at S phase at 2.2 uM after 24 hrs by DAPI staining-based flow cytometry (reference value: 17.4%); format: functional
M21 [19] = experiment: Cell cycle arrest in human M21 cells assessed as accumulation at G2/M phase at 2.2 uM after 24 hrs by DAPI staining-based flow cytometry (reference value: 16%); format: functional
M21 [20] = experiment: Cell cycle arrest in human M21 cells assessed as accumulation at G0/G1 phase at 3.3 uM after 24 hrs by DAPI staining-based flow cytometry (reference value: 65.1%); format: functional
M21 [21] = experiment: Cell cycle arrest in human M21 cells assessed as accumulation at S phase at 3.3 uM after 24 hrs by DAPI staining-based flow cytometry (reference value: 17.4%); format: functional
M21 [22] = experiment: Cell cycle arrest in human M21 cells assessed as accumulation at G2/M phase at 3.3 uM after 24 hrs by DAPI staining-based flow cytometry (reference value: 16%); format: functional
M21 [23] = experiment: Cell cycle arrest in human M21 cells assessed as accumulation at subG1 phase at 3.3 uM after 24 hrs by DAPI staining-based flow cytometry (reference value: 1.5%); format: functional
M21 [24] = experiment: Induction DNA DSBs in human M21 cells assessed as increase in gamma H2AX foci at 3.3 uM incubated for 24 hrs by DAPI staining based immunocytochemistry; format: functional, cell-based
M21 [25] = experiment: Cell cycle arrest in human M21 cells assessed as accumulation at G0/G1 phase at 3.9 uM after 24 hrs by DAPI staining-based flow cytometry (reference value: 65.1%); format: functional
M21 [26] = experiment: Cell cycle arrest in human M21 cells assessed as accumulation at S phase at 3.9 uM after 24 hrs by DAPI staining-based flow cytometry (reference value: 17.4%); format: functional
M21 [27] = experiment: Cell cycle arrest in human M21 cells assessed as accumulation at G2/M phase at 3.9 uM after 24 hrs by DAPI staining-based flow cytometry (reference value: 16%); format: functional
M21 [28] = experiment: Cell cycle arrest in human M21 cells assessed as accumulation at subG1 phase at 3.9 uM after 24 hrs by DAPI staining-based flow cytometry (reference value: 1.5%); format: functional
M21 [29] = experiment: Induction DNA DSBs in human M21 cells assessed as increase in gamma H2AX foci at 3.9 uM incubated for 24 hrs by DAPI staining based immunocytochemistry; format: cell-based

SMILES: O=C(NCCCl)Nc1ccc(S(=O)(=O)Oc2c(F)cccc2F)cc1
IC50 [1]: 3200 nM
IC50 (M21 [2]): 3200 nM
IC50 (HT-29): 4100 nM
IC50 (MCF7): 4800 nM
Activity (M21 [7]): 8.7%
Activity (M21 [8]): 29.4%
Activity (M21 [9]): 15.1%
Activity (M21 [10]): 46.8%

SMILES: O=C(NCCCl)Nc1ccc(S(=O)(=O)Oc2ccccc2Cl)cc1
IC50 [1]: 1100 nM
IC50 (M21 [2]): 2100 nM
IC50 (HT-29): 3500 nM
IC50 (MCF7): 4200 nM
Activity (M21 [11]): 43.8%
Activity (M21 [12]): 33.3%
Activity (M21 [13]): 21%
Activity (M21 [14]): 1.9%
Activity (M21 [15]): Active

SMILES: Cc1cccc(C)c1OS(=O)(=O)c1ccc(NC(=O)NCCCl)cc1
IC50 [1]: 1100 nM
IC50 (M21 [2]): 2000 nM
IC50 (HT-29): 2800 nM
IC50 (MCF7): 3700 nM
Activity (M21 [25]): 31%
Activity (M21 [26]): 47.1%
Activity (M21 [27]): 20.3%
Activity (M21 [28]): 1.6%
Activity (M21 [29]): Active

Now those with a lower IC50 (HT-29), led by results:

IC50 (HT-29): 2300 nM
IC50 (MCF7): 3000 nM
SMILES: Cc1cc(C)c(OS(=O)(=O)c2ccc(NC(=O)NCCCl)cc2)cc1C
IC50 [1]: 1000 nM
IC50 (M21 [2]): 1700 nM
Activity (M21 [20]): 27.5%
Activity (M21 [21]): 43.8%
Activity (M21 [22]): 27%
Activity (M21 [23]): 1.7%
Activity (M21 [24]): Active

IC50 (HT-29): 1500 nM
IC50 (MCF7): 1700 nM
SMILES: O=C(NCCCl)Nc1ccc(S(=O)(=O)Oc2c(Cl)cc(Cl)cc2Cl)cc1
IC50 [1]: 1500 nM
IC50 (M21 [2]): 1300 nM
Activity (M21 [3]): 8.5%
Activity (M21 [4]): 11.6%
Activity (M21 [5]): 7.3%
Activity (M21 [6]): 72.6%

IC50 (HT-29): 1400 nM
IC50 (MCF7): 1700 nM
SMILES: CCOc1ccccc1OS(=O)(=O)c1ccc(NC(=O)NCCCl)cc1
IC50 [1]: 2200 nM
IC50 (M21 [2]): 1100 nM
Activity (M21 [16]): 6.7%
Activity (M21 [17]): 28.8%
Activity (M21 [18]): 11.8%
Activity (M21 [19]): 52.7%
